For seven cell lines, relative viability results are on record in the supplement of paper PMC10307832.

Holding throughout (experiment): relative viability (nuclei count vs DMSO), 5 days (fraction); higher = more cells survive
Compound in assay [1]: C1=CC(=CC=C1NC(=S)NNC2=C(C=C(C=C2[N+](=O)[O-])C(F)(F)F)[N+](=O)[O-])F [Kobe2602] + C[C@@H](Oc1cc(-c2cnn(C3CCNCC3)c2)cnc1N)c1c(Cl)ccc(F)c1Cl [Crizotinib] (partner 1 µM)
Put shortly: (§1)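 Lung cancer cell lines in 1536-well plates got either a single drug or a fixed anchor-drug dose together with five library-drug doses (not always all listed) in √10 steps, by pin tool, on the day after seeding. Nuclei were counted after 5 days, and relative viability is the treated-to-vehicle ratio of nuclei counts. Values are medians of duplicate plates.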

Compound in assay [2]: C1=CC(=CC=C1NC(=S)NNC2=C(C=C(C=C2[N+](=O)[O-])C(F)(F)F)[N+](=O)[O-])F [Kobe2602] + N=C(N)NC(=N)NCCc1ccccc1 [Phenformin] (partner 250 µM)
Put shortly:
as §1

Compound in assay [3]: COc1cc2nccc(Oc3ccc(NC(=O)C4(C(=O)Nc5ccc(F)cc5)CC4)cc3)c2cc1OC [Cabozantinib] + Cc1nc(Nc2ncc(C(=O)Nc3c(C)cccc3Cl)s2)cc(N2CCN(CCO)CC2)n1 [Dasatinib] (partner 0.075 µM)
An outline of the steps: as §1

Compound in assay [4]: O[C@@H](COc1cccc2ncccc12)CN1CCN([C@@H]2c3ccccc3[C@@H]3[C@H](c4ccccc42)C3(F)F)CC1 [Zosuquidar] + CC(C)C[C@H](NC(=O)[C@H](Cc1ccccc1)NC(=O)c1cnccn1)B(O)O [Bortezomib] (partner 0.002 µM)
Put shortly: as §1

On to NCI-H2405, for which the relative viability in assay [1] (first compound 0.2 µM) turned out to be 0.853; in assay [1] (first compound 0.6325 µM), 0.916; in assay [1] (first compound 2 µM) it was 0.827; in assay [1] (first compound 6.325 µM) it was 0.91; in assay [1] (first compound 20 µM) it was 0.786; in assay [2] (first compound 0.2 µM), 0.418. The relative viability is 0.431 in assay [2] (first compound 0.6325 µM); 0.411 in assay [2] (first compound 2 µM); 0.393 in assay [2] (first compound 6.325 µM); 0.452 in assay [2] (first compound 20 µM); 0.171 in assay [3] (first compound 0.02 µM); 0.232 in assay [3] (first compound 0.06325 µM). Also, the relative viability came to 0.215 in assay [3] (first compound 0.2 µM); 0.212 in assay [3] (first compound 0.6325 µM); 0.215 in assay [3] (first compound 2 µM); 0.931 in assay [4] (first compound 0.01 µM); 0.974 in assay [4] (first compound 0.03162 µM); 0.861 in assay [4] (first compound 0.1 µM). The relative viability in assay [4] (first compound 0.3162 µM) is 1.02; in assay [4] (first compound 1 µM) it was 0.959.
For NCI-H3122, the relative viability in assay [1] (first compound 0.2 µM) turned out to be 0.262; in assay [1] (first compound 0.6325 µM), 0.255; in assay [1] (first compound 2 µM), 0.254; in assay [1] (first compound 6.325 µM), 0.263; in assay [1] (first compound 20 µM), 0.266; in assay [2] (first compound 0.2 µM), 0.425. In addition, the relative viability came out at 0.402 in assay [2] (first compound 0.6325 µM); 0.378 in assay [2] (first compound 2 µM); 0.394 in assay [2] (first compound 6.325 µM); 0.364 in assay [2] (first compound 20 µM); 0.714 in assay [3] (first compound 0.02 µM); 0.941 in assay [3] (first compound 0.06325 µM). Besides, the relative viability in assay [3] (first compound 0.2 µM) came out at 0.836; in assay [3] (first compound 0.6325 µM) it was 0.78; in assay [3] (first compound 2 µM), 0.83; in assay [4] (first compound 0.01 µM) it was 0.942; in assay [4] (first compound 0.03162 µM) it was 0.93; in assay [4] (first compound 0.1 µM), 0.979. The figures for the relative viability in assay [4] (first compound 0.3162 µM) and in assay [4] (first compound 1 µM) were 1.04 and 0.996, respectively.
As for PC-3 [JPC-3], the relative viability in assay [1] (first compound 0.2 µM) turned out to be 0.933; in assay [1] (first compound 0.6325 µM), 1.02; in assay [1] (first compound 2 µM), 0.946; in assay [1] (first compound 6.325 µM), 0.925; in assay [1] (first compound 20 µM), 0.974; in assay [2] (first compound 0.2 µM) it was 0.489. Also, the relative viability in assay [2] (first compound 0.6325 µM) turned out to be 0.508; in assay [2] (first compound 2 µM), 0.525; in assay [2] (first compound 6.325 µM) it was 0.464; in assay [2] (first compound 20 µM), 0.502; in assay [3] (first compound 0.02 µM), 0.89; in assay [3] (first compound 0.06325 µM) it was 1.21. Moreover, the relative viability came out at 1.1 in assay [3] (first compound 0.6325 µM); 0.993 in assay [3] (first compound 2 µM); 0.849 in assay [4] (first compound 0.01 µM); 0.879 in assay [4] (first compound 0.03162 µM); 0.706 in assay [4] (first compound 0.1 µM); 0.765 in assay [4] (first compound 0.3162 µM). In assay [4] (first compound 1 µM), the relative viability was 0.863.
For PC-14, the relative viability in assay [1] (first compound 0.2 µM) was determined as 0.886; in assay [1] (first compound 0.6325 µM) it was 0.927; in assay [1] (first compound 2 µM), 0.838; in assay [1] (first compound 6.325 µM), 1.02; in assay [1] (first compound 20 µM), 0.912; in assay [2] (first compound 0.2 µM), 0.59. For the same cell line, the relative viability in assay [2] (first compound 0.6325 µM) turned out to be 0.804; in assay [2] (first compound 2 µM) it was 0.558; in assay [2] (first compound 6.325 µM) it was 0.699; in assay [2] (first compound 20 µM), 0.592; in assay [3] (first compound 0.02 µM), 0.219; in assay [3] (first compound 0.06325 µM), 0.339. The relative viability was 0.0309 in assay [3] (first compound 0.2 µM); 0.246 in assay [3] (first compound 0.6325 µM); 0.195 in assay [3] (first compound 2 µM); 0.846 in assay [4] (first compound 0.01 µM); 0.992 in assay [4] (first compound 0.03162 µM); 0.782 in assay [4] (first compound 0.1 µM). The relative viability in assay [4] (first compound 0.3162 µM) is 0.984; in assay [4] (first compound 1 µM) it was 0.78.
In the case of RERF-LC-KJ, the relative viability in assay [1] (first compound 0.2 µM) was 0.781; in assay [1] (first compound 0.6325 µM) it was 0.839; in assay [1] (first compound 2 µM) it was 0.836; in assay [1] (first compound 6.325 µM), 0.81; in assay [1] (first compound 20 µM), 0.756; in assay [2] (first compound 0.2 µM), 0.437. The relative viability in assay [2] (first compound 0.6325 µM) amounted to 0.413; in assay [2] (first compound 2 µM), 0.395; in assay [2] (first compound 6.325 µM) it was 0.413; in assay [2] (first compound 20 µM) it was 0.377; in assay [3] (first compound 0.02 µM) it was 0.84; in assay [3] (first compound 0.06325 µM), 0.77. The relative viability in assay [3] (first compound 0.2 µM) turned out to be 0.763; in assay [3] (first compound 0.6325 µM), 0.853; in assay [3] (first compound 2 µM) it was 0.923; in assay [4] (first compound 0.01 µM), 1.17; in assay [4] (first compound 0.03162 µM), 1.16; in assay [4] (first compound 0.1 µM), 1.17. In addition, the relative viability in assay [4] (first compound 0.3162 µM) came to 1.18; in assay [4] (first compound 1 µM) it was 0.992.
As for SK-LU-1, the relative viability in assay [1] (first compound 0.2 µM) is 0.94; in assay [1] (first compound 0.6325 µM), 0.944; in assay [1] (first compound 2 µM), 0.965; in assay [1] (first compound 6.325 µM), 1.06; in assay [1] (first compound 20 µM), 0.924; in assay [2] (first compound 0.2 µM) it was 0.618. For the same cell line, the relative viability in assay [2] (first compound 0.6325 µM) was 0.682; in assay [2] (first compound 2 µM), 0.584; in assay [2] (first compound 6.325 µM), 0.526; in assay [2] (first compound 20 µM), 0.597; in assay [3] (first compound 0.02 µM) it was 0.138; in assay [3] (first compound 0.06325 µM), 0.164. For the same cell line, the relative viability in assay [3] (first compound 0.2 µM) came out at 0.174; in assay [3] (first compound 0.6325 µM) it was 0.155; in assay [3] (first compound 2 µM), 0.156; in assay [4] (first compound 0.01 µM), 1.17; in assay [4] (first compound 0.03162 µM), 1.14; in assay [4] (first compound 0.1 µM), 0.962. The relative viability in assay [4] (first compound 1 µM) was found to be 1.41.
Regarding SW 1573, the relative viability worked out at 0.788 in assay [1] (first compound 0.2 µM); 0.879 in assay [1] (first compound 0.6325 µM); 0.736 in assay [1] (first compound 2 µM); 0.863 in assay [1] (first compound 6.325 µM); 0.912 in assay [1] (first compound 20 µM); 0.346 in assay [2] (first compound 0.2 µM). Further, the relative viability in assay [2] (first compound 0.6325 µM) amounted to 0.47; in assay [2] (first compound 2 µM) it was 0.378; in assay [2] (first compound 6.325 µM), 0.346; in assay [2] (first compound 20 µM), 0.168; in assay [3] (first compound 0.02 µM) it was 0.438; in assay [3] (first compound 0.06325 µM) it was 0.738. The relative viability in assay [3] (first compound 0.2 µM) is 0.453; in assay [3] (first compound 0.6325 µM) it was 0.624; in assay [3] (first compound 2 µM), 0.456; in assay [4] (first compound 0.01 µM), 0.976; in assay [4] (first compound 0.03162 µM), 0.987; in assay [4] (first compound 0.1 µM), 1.04. Moreover, the relative viability in assay [4] (first compound 0.3162 µM) was 1.18; in assay [4] (first compound 1 µM), 1.14.
